The values below come from paper PMC11116102, “A naturally occurring variant of SHLP2 is a protective factor in Parkinson’s disease” (Molecular Psychiatry, 2024).

No end group written: not given here.

In data set [1] the test system is HeLa expressing HA- EGFP- OMP25 (HA-MITO). Put plainly: Rapid mitochondria immunoprecipitation, localization of synthetic SHLP2. The data set is classed as cell-based. To be noted: synthetic SHLP2 treatment, western blot. How it is done:
Mitochondria isolation from HeLa cells expressing HA-EGFP-OMP25 (HA-MITO) or myc-EGFP-OMP25 (CON-MITO) was performed according to the published article. Briefly, cells were lysed in KPBS buffer (136 mM KCl, 10 mM KH2PO4, pH 7.25) and homogenized with 25 strokes of a 2 ml homogenizer. The homogenate was spun down at 1000 g for 2 min. The supernatant was incubated with anti-HA magnetic beads on an end-over-end rotator for 3.5 min. The beads were washed with KPBS buffer, incubated for 10 min with lysis buffer (1% triton X-100 lysis buffer with protease inhibitor cocktail), and spun down at 17000 g for 10 min. The supernatants were used for western blot.
Background: A western blot detects proteins with antibodies after separation by electrophoresis.

In the next data set the test system is HEK293 cells. The experiment in a line: Cycloheximide pulse-chase protein stability. The data set is classed as cell-based. To be noted: HEK293 transiently transfected with C-terminal EGFP-tagged construct; 100ug/ml cycloheximide for the indicated time; western blot, Image J; n = 3/per group. The method, then: Cells were lysed with RIPA Lysis and Extraction Buffer (ThermoFisher Scientific) plus the Halt protease & phosphatase inhibitor cocktail (ThermoFisher Scientific). The lysates were incubated on ice for 10 min then homogenized using a sonicator, and the supernatant was collected by centrifugation at 15,000 x g for 15 min at 4 °C. Protein content in the cellular lysates was quantified using the Pierce™ BCA Protein Assay Kit (ThermoFisher Scientific). Predetermined amounts of proteins (10-30μg) were separated on 8-16% SDS-PAGE gels and blotted onto PVDF membranes (Biorad, Hercules, CA, USA). Membranes were incubated with primary antibody at 4 °C overnight according to the manufacturer’s instructions. After several washes with Tris-buffered saline containing 0.1% Tween-20, membranes were incubated at room temperature for 1 hr with the appropriate HRP-conjugated secondary antibody. Clarity™ Western ECL substrate (Biorad) was used for detecting specific bands. Membranes were imaged on a Bio-Rad ChemiDoc XRS^+ imager. If necessary, relative intensities of the bands in each condition were measured using Image J, a free software program provided by National Institute of Health (Bethesda, Maryland, USA).
Cycloheximide, an inhibitor of protein biosynthesis, was used to examine protein stability in cells. […] The protein quantity from western blot was examined with Image J.

Data set [2] relates to dopamine levels in the striatum. The experiment in a line: Striatal dopamine in MPTP-lesioned mice (HPLC with electrochemical detection). The data set is classed as in vivo. The note with it: C57BL/6 mice, MPTP 20 mg/kg, n = 8 per group. How it is done: C57BL/6 male mice, 8 to 10 weeks of age were purchased from Jackson Labs (Bar Harbor, Maine). 1-methyl-4- phenyl- 1,2,3,6-tetrahydropyridine (MPTP) (Selleck Chemicals Co., Houston, TX) was prepared to a concentration of […] free-base in 0.9% saline on the day of use. C57BL/6 mice were injected with 20 mg/kg free-base MPTP. 8 days after the last injection of MPTP, mice were killed by cervical dislocation and the brain quickly removed and placed on wet ice. Striatal tissues for HPLC analysis and western immunoblotting were collected fresh corresponding to anatomical regions from bregma 1.20 to bregma 0.60, with borders dorsal to the anterior commissure, ventral to the corpus callosum, medial to the lateral ventricle, and 2.5 mm lateral from midline, and frozen at -80 °C until analysis. All procedures utilizing MPTP lesioning and tissue collection were approved by the USC IACUC.
Dopamine concentrations were determined according to an adaptation of Irwin et al. from the method of Kilpatrick et al.. […] The protein pellet was resuspended in 0.5 N NaOH and the total protein concentration determined using the BCA Protein Assay (Pierce, Rockford, IL), a Biotek Model Elx800 microplate reader (Biotek Instruments, Wincoski, VT) and KCjunior software. […]

Turning to MGVKFFTLSTRFFPSVQRAVPLWTNS [WT SHLP2], the “mitochondrial localization of synthetic peptide” value in data set [1] is given as “localized in the mitochondria after 30 min of treatment”. On to MGVRFFTLSTRFFPSVQRAVPLWTNS [K4R SHLP2], for which the “protein stability, pulse-chase” value in the data set with HEK293 cells was “more stable than WT SHLP2”.

With `CN1CC=C(c2ccccc2)CC1` [MPTP, 1-methyl-4-phenyl-1,2,3,6-tetrahydropyridine], the “dopamine levels in the striatum, toxin alone” value in data set [2] was “significant decrease in dopamine levels”.
